Laboratory results as given in the supplement of paper PMC10307832.

How the values were obtained:
Test in all cases: relative viability (nuclei count vs DMSO), 5 days (fraction); higher = more cells survive
NCI-H1299 = tested on: NCI-H1299
Summary of the method: (§1)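 For relative viability, nuclei counts in treated wells were divided by those in vehicle wells. Lung cancer cell lines had been pin-tool dosed in 1536-well plates the day after seeding and cultured for 5 days, then fixed and stained in one step (final 0.05% Triton X-100, 1% formaldehyde, 1 ug/ml Hoechst) and imaged at 4×. Doses were one drug alone or a fixed anchor-drug dose plus five library-drug doses (not always all listed) in √10 steps, and values are duplicate-plate medians.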

A549 = tested on: A549
Summary of the method: as §1

EBC-1 = tested on: EBC-1
Summary of the method: as §1

CAL-12T = tested on: CAL-12T
Summary of the method: as §1

IA-LM = tested on: IA-LM
Summary of the method: as §1

Calu-6 = tested on: Calu-6
Summary of the method: as §1

NCI-H1703 = tested on: NCI-H1703
Summary of the method: as §1

Row | SMILES | relative viability (NCI-H1299; first compound 0.04 µM) | relative viability (NCI-H1299; first compound 0.1265 µM) | relative viability (NCI-H1299; first compound 0.4 µM) | relative viability (NCI-H1299; first compound 4 µM) | relative viability (EBC-1; first compound 0.04 µM) | relative viability (EBC-1; first compound 0.1265 µM) | relative viability (EBC-1; first compound 0.4 µM) | relative viability (EBC-1; first compound 4 µM) | relative viability (CAL-12T; first compound 0.04 µM) | relative viability (CAL-12T; first compound 0.1265 µM) | relative viability (CAL-12T; first compound 4 µM) | relative viability (IA-LM; first compound 0.04 µM) | relative viability (IA-LM; first compound 0.1265 µM) | relative viability (IA-LM; first compound 0.4 µM) | relative viability (IA-LM; first compound 4 µM) | relative viability (Calu-6; first compound 0.04 µM) | relative viability (Calu-6; first compound 0.1265 µM) | relative viability (Calu-6; first compound 0.4 µM) | relative viability (Calu-6; first compound 4 µM) | relative viability (NCI-H1703; first compound 0.04 µM) | further results
1 | Clc1ccc(Nc2nnc(Cc3ccncc3)c3ccccc23)cc1 [Vatalanib] + CS(=O)(=O)N1CCN(Cc2cc3nc(-c4cccc5[nH]ncc45)nc(N4CCOCC4)c3s2)CC1 [Pictilisib] (partner 1 µM) | 0.835 | 0.703 | 0.967 | 0.857 | 0.346 | 0.393 | 0.45 | 0.411 | 0.238 | 0.39 | 0.463 | 0.368 | 0.354 | 0.319 | 0.36 | 0.891 | 0.907 | 0.986 | 0.835 | 0.229 | relative viability (NCI-H1299; first compound 1.265 µM): 0.66; relative viability (A549; first compound 0.04 µM): 0.495; relative viability (A549; first compound 0.1265 µM): 0.506; relative viability (A549; first compound 0.4 µM): 0.502; relative viability (A549; first compound 1.265 µM): 0.52; relative viability (A549; first compound 4 µM): 0.505; relative viability (EBC-1; first compound 1.265 µM): 0.276; relative viability (CAL-12T; first compound 1.265 µM): 0.446; relative viability (IA-LM; first compound 1.265 µM): 0.337; relative viability (Calu-6; first compound 1.265 µM): 0.883; relative viability (NCI-H1703; first compound 0.1265 µM): 0.206; relative viability (NCI-H1703; first compound 0.4 µM): 0.242; relative viability (NCI-H1703; first compound 1.265 µM): 0.209; relative viability (NCI-H1703; first compound 4 µM): 0.227
2 | COc1cc(N2CCC(C(N)=O)CC2)ccc1Nc1nc(N)c(Cl)c(Nc2ccccc2S(=O)(=O)C(C)C)n1 [HG-5-88-01] + CS(=O)(=O)N1CCN(Cc2cc3nc(-c4cccc5[nH]ncc45)nc(N4CCOCC4)c3s2)CC1 [Pictilisib] (partner 1 µM) | 0.745 | 0.724 | 0.725 | 0.682 | 0.394 | 0.362 | 0.339 | 0.217 | 0.321 | 0.354 | 0.227 | 0.398 | 0.252 | 0.244 | 0.145 | 0.942 | 0.869 | 0.848 | 0.698 | 0.217 | relative viability (NCI-H1299; first compound 1.265 µM): 0.643; relative viability (A549; first compound 0.04 µM): 0.482; relative viability (A549; first compound 0.1265 µM): 0.495; relative viability (A549; first compound 0.4 µM): 0.389; relative viability (A549; first compound 1.265 µM): 0.323; relative viability (A549; first compound 4 µM): 0.237; relative viability (EBC-1; first compound 1.265 µM): 0.324; relative viability (CAL-12T; first compound 0.4 µM): 0.418; relative viability (CAL-12T; first compound 1.265 µM): 0.296; relative viability (IA-LM; first compound 1.265 µM): 0.172; relative viability (Calu-6; first compound 1.265 µM): 0.824; relative viability (NCI-H1703; first compound 0.1265 µM): 0.223; relative viability (NCI-H1703; first compound 0.4 µM): 0.228; relative viability (NCI-H1703; first compound 1.265 µM): 0.222; relative viability (NCI-H1703; first compound 4 µM): 0.226
3 | CC(C)Oc1cc(Nc2nc(N[C@@H](C)c3ccc(F)cn3)ncc2Cl)n[nH]1 [AZ23] + CS(=O)(=O)CCNCc1ccc(-c2ccc3ncnc(Nc4ccc(OCc5cccc(F)c5)c(Cl)c4)c3c2)o1 [Lapatinib] (partner 2 µM) |  |  |  |  |  |  |  |  |  |  |  |  |  |  |  |  |  |  |  |  | relative viability (NCI-H1299; first compound 0.01 µM): 0.977; relative viability (NCI-H1299; first compound 0.03162 µM): 1.08; relative viability (NCI-H1299; first compound 0.3162 µM): 1.03; relative viability (A549; first compound 0.01 µM): 1.16; relative viability (A549; first compound 0.03162 µM): 0.945; relative viability (A549; first compound 0.3162 µM): 1.02; relative viability (EBC-1; first compound 0.03162 µM): 0.234; relative viability (EBC-1; first compound 0.3162 µM): 0.194; relative viability (CAL-12T; first compound 0.03162 µM): 0.701; relative viability (CAL-12T; first compound 0.3162 µM): 0.647; relative viability (IA-LM; first compound 0.01 µM): 0.872; relative viability (IA-LM; first compound 0.03162 µM): 1.37; relative viability (IA-LM; first compound 0.3162 µM): 0.871; relative viability (Calu-6; first compound 0.03162 µM): 1.25; relative viability (Calu-6; first compound 0.3162 µM): 1.08; relative viability (NCI-H1703; first compound 0.01 µM): 0.939; relative viability (NCI-H1703; first compound 0.03162 µM): 1.16; relative viability (NCI-H1703; first compound 0.3162 µM): 1.3
4 | Clc1ccc(Nc2nnc(Cc3ccncc3)c3ccccc23)cc1 [Vatalanib] + CC(C)C[C@H](NC(=O)[C@H](Cc1ccccc1)NC(=O)c1cnccn1)B(O)O [Bortezomib] (partner 0.002 µM) | 1.02 | 1.06 | 1 | 1.02 | 0.489 | 0.498 | 0.807 | 0.524 | 0.933 | 0.774 | 1.05 | 0.963 | 0.955 | 0.91 | 0.871 | 1.07 | 0.991 | 1.18 | 1.1 | 0.464 | relative viability (NCI-H1299; first compound 1.265 µM): 1.04; relative viability (EBC-1; first compound 1.265 µM): 0.519; relative viability (CAL-12T; first compound 1.265 µM): 0.988; relative viability (IA-LM; first compound 1.265 µM): 0.763; relative viability (Calu-6; first compound 1.265 µM): 0.911; relative viability (NCI-H1703; first compound 0.4 µM): 0.558; relative viability (NCI-H1703; first compound 1.265 µM): 0.237; relative viability (NCI-H1703; first compound 4 µM): 0.21
5 | COc1cc(N2CCC(C(N)=O)CC2)ccc1Nc1nc(N)c(Cl)c(Nc2ccccc2S(=O)(=O)C(C)C)n1 [HG-5-88-01] + CC(C)C[C@H](NC(=O)[C@H](Cc1ccccc1)NC(=O)c1cnccn1)B(O)O [Bortezomib] (partner 0.002 µM) | 1.02 | 1.02 | 1.03 | 1.04 | 0.567 | 0.624 | 0.549 | 0.241 | 1.16 | 0.897 | 0.579 | 0.835 | 0.849 | 0.724 | 0.666 | 1.03 | 0.998 | 0.978 | 0.841 | 0.263 | relative viability (NCI-H1299; first compound 1.265 µM): 1.04; relative viability (EBC-1; first compound 1.265 µM): 0.474; relative viability (CAL-12T; first compound 0.4 µM): 0.837; relative viability (CAL-12T; first compound 1.265 µM): 0.955; relative viability (IA-LM; first compound 1.265 µM): 0.812; relative viability (Calu-6; first compound 1.265 µM): 0.925; relative viability (NCI-H1703; first compound 0.1265 µM): 0.42; relative viability (NCI-H1703; first compound 0.4 µM): 0.384; relative viability (NCI-H1703; first compound 1.265 µM): 0.312; relative viability (NCI-H1703; first compound 4 µM): 0.239
6 | C[C@@H]1CN(CC(=O)Nc2ccc3c(c2)Cc2cccc(-c4cc(=O)cc(N5CCOCC5)o4)c2S3)C[C@H](C)O1 + CC(C)C[C@H](NC(=O)[C@H](Cc1ccccc1)NC(=O)c1cnccn1)B(O)O [Bortezomib] (partner 0.002 µM) | 1.03 | 1.03 | 1.01 | 0.926 | 0.636 | 0.535 | 0.472 | 0.335 | 1.06 | 0.954 | 0.796 | 0.669 | 0.773 | 0.832 | 0.375 | 1.07 | 1.03 | 1.08 | 0.66 | 0.469 | relative viability (CAL-12T; first compound 0.4 µM): 1.06; relative viability (NCI-H1703; first compound 0.1265 µM): 0.365; relative viability (NCI-H1703; first compound 0.4 µM): 0.241; relative viability (NCI-H1703; first compound 4 µM): 0.254
